According to patent US9714244B2, “Substituted pyrido[4,3-d]pyrimidines as Wee-1 inhibitors” (ALMAC DISCOVERY LIMITED, priority 2013, dated 2017):

Key:
IKBKB (IKK beta) = IKBKB (IKK beta) (Homo sapiens (Human), UniProt O14920); test: SelectScreen Kinase Profiling: IKBKB; format: biochemical; details: 300-350 nM
Excerpt: (§1) Table 2 below highlights the selectivity of a representative compound of the invention against a panel of 50 kinases (assessed using the Invitrogen SelectScreen® Kinase Profiling Service).

MAPK8 (JNK1) = MAPK8 (JNK1) (Homo sapiens (Human), UniProt P45983); test: SelectScreen Kinase Profiling: MAPK8; format: biochemical; details: 300-350 nM
Excerpt: as §1

PRKCB1 (PKC beta I) = PRKCB1 (PKC beta I) (Homo sapiens (Human), UniProt P05771); test: SelectScreen Kinase Profiling: PRKCB1; format: biochemical; details: 300-350 nM
Excerpt: as §1

KIT = KIT (Homo sapiens (Human), UniProt P10721); test: SelectScreen Kinase Profiling: KIT; format: biochemical; details: 300-350 nM
Excerpt: as §1

MET (cMet) = MET (cMet) (Homo sapiens (Human), UniProt P08581); test: SelectScreen Kinase Profiling: MET; format: biochemical; details: 300-350 nM
Excerpt: as §1

AURKA (Aurora A) = AURKA (Aurora A) (Homo sapiens (Human), UniProt O14965); test: SelectScreen Kinase Profiling: AURKA; format: biochemical; details: 300-350 nM
Excerpt: as §1

MAPK14 (p38 alpha) = MAPK14 (p38 alpha) (Homo sapiens (Human), UniProt Q16539); test: SelectScreen Kinase Profiling: MAPK14; format: biochemical; details: 300-350 nM
Excerpt: as §1

IGF1R = IGF1R (Homo sapiens (Human), UniProt P08069); test: SelectScreen Kinase Profiling: IGF1R; format: biochemical; details: 300-350 nM
Excerpt: as §1

Src [1] = details: quoted in column head, BMCL 2005 p1931; cited from earlier work
PHKG2 = PHKG2 (Homo sapiens (Human), UniProt P15735); test: SelectScreen Kinase Profiling: PHKG2; format: biochemical; details: 300-350 nM
Excerpt: as §1

MAPKAPK2 = MAPKAPK2 (Homo sapiens (Human), UniProt P49137); test: SelectScreen Kinase Profiling: MAPKAPK2; format: biochemical; details: 300-350 nM
Excerpt: as §1

SYK = SYK (Homo sapiens (Human), UniProt P43405); test: SelectScreen Kinase Profiling: SYK; format: biochemical; details: 300-350 nM
Excerpt: as §1

CHEK1 (CHK1) = CHEK1 (CHK1) (Homo sapiens (Human), UniProt O14757); test: SelectScreen Kinase Profiling: CHEK1; format: biochemical; details: 300-350 nM
Excerpt: as §1

LCK = LCK (Homo sapiens (Human), UniProt P06239); test: SelectScreen Kinase Profiling: LCK; format: biochemical; details: 300-350 nM
Excerpt: as §1

AKT1 (PKB alpha) = AKT1 (PKB alpha) (Homo sapiens (Human), UniProt P31749); test: SelectScreen Kinase Profiling: AKT1; format: biochemical; details: 300-350 nM
Excerpt: as §1

FRAP1 (mTOR) = FRAP1 (mTOR) (Homo sapiens (Human), UniProt P42345); test: SelectScreen Kinase Profiling: FRAP1; format: biochemical; details: 300-350 nM
Excerpt: as §1

Src [2] = molecular target: Src (Homo sapiens (Human), UniProt P12931); test: SelectScreen Kinase Profiling: SRC; format: biochemical; details: 300-350 nM
RET = RET (Homo sapiens (Human), UniProt P07949); test: SelectScreen Kinase Profiling: RET; format: biochemical; details: 300-350 nM
Excerpt: as §1

MAP4K4 (HGK) = MAP4K4 (HGK) (Homo sapiens (Human), UniProt O95819); test: SelectScreen Kinase Profiling: MAP4K4; format: biochemical; details: 300-350 nM
Excerpt: as §1

NTRK1 (TRKA) = NTRK1 (TRKA) (Homo sapiens (Human), UniProt P04629); test: SelectScreen Kinase Profiling: NTRK1; format: biochemical; details: 300-350 nM
Excerpt: as §1

IRAK4 = IRAK4 (Homo sapiens (Human), UniProt Q9NWZ3); test: SelectScreen Kinase Profiling: IRAK4; format: biochemical; details: 300-350 nM
Excerpt: as §1

FLT3 = FLT3 (Homo sapiens (Human), UniProt P36888); test: SelectScreen Kinase Profiling: FLT3; format: biochemical; details: 300-350 nM
Excerpt: as §1

TEK (Tie2) = TEK (Tie2) (Homo sapiens (Human), UniProt Q02763); test: SelectScreen Kinase Profiling: TEK; format: biochemical; details: 300-350 nM
Excerpt: as §1

Chain of MAP4K4 (HGK) (O95819 whole entry): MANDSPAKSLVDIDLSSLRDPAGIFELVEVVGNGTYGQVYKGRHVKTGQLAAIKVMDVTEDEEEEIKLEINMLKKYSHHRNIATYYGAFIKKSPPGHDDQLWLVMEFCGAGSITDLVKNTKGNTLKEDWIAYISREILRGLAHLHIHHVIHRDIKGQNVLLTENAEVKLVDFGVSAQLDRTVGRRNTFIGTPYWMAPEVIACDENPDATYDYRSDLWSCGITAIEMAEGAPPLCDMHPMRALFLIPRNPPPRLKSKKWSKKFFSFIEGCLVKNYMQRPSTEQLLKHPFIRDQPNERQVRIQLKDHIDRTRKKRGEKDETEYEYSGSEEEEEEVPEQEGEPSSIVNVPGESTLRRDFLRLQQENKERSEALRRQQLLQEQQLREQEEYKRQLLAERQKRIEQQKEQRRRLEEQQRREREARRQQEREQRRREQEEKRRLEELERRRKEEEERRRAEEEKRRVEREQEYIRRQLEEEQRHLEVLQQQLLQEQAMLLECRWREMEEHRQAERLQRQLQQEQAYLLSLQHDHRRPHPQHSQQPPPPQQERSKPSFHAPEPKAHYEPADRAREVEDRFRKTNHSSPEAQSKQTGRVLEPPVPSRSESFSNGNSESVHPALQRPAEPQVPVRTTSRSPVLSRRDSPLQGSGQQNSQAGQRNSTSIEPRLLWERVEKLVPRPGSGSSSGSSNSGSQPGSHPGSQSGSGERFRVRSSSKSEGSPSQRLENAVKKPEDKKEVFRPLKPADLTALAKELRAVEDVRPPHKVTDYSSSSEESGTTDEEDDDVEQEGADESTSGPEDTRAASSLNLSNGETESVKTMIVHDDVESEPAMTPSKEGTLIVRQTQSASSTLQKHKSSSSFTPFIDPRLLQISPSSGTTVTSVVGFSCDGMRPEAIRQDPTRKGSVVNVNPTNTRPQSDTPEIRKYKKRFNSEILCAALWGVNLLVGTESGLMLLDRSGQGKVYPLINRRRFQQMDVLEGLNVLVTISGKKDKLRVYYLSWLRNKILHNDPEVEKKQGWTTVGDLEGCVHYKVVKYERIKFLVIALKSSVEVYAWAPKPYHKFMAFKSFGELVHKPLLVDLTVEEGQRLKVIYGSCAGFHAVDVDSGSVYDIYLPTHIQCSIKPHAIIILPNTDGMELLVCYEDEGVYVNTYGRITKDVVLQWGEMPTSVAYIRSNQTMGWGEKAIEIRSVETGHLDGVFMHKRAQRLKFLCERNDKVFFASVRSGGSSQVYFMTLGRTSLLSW
Chain of KIT (P10721 26-976): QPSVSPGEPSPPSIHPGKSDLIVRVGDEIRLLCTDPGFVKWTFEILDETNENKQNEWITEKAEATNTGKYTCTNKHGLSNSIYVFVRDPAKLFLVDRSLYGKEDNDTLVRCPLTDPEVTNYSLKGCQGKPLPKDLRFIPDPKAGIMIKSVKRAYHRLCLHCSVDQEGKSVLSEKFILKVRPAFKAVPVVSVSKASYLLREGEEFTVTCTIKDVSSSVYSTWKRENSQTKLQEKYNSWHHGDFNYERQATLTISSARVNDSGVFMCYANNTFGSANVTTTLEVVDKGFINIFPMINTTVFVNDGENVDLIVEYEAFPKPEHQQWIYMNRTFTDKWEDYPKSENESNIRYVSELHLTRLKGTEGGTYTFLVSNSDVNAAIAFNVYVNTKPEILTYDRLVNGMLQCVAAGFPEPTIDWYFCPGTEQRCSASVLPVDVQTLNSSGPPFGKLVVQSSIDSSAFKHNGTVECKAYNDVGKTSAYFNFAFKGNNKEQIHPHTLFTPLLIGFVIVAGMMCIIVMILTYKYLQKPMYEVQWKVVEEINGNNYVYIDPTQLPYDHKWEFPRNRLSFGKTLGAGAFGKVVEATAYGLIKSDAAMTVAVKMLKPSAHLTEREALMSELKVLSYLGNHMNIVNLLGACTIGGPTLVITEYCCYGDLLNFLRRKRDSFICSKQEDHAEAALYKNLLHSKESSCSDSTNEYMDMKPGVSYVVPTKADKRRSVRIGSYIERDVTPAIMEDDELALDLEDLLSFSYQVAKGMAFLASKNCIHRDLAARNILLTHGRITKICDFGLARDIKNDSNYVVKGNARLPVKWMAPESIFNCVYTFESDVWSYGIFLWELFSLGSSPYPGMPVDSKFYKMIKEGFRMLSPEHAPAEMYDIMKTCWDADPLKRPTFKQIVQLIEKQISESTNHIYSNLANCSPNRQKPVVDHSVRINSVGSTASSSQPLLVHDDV
Chain of TEK (Tie2) (Q02763 23-1124): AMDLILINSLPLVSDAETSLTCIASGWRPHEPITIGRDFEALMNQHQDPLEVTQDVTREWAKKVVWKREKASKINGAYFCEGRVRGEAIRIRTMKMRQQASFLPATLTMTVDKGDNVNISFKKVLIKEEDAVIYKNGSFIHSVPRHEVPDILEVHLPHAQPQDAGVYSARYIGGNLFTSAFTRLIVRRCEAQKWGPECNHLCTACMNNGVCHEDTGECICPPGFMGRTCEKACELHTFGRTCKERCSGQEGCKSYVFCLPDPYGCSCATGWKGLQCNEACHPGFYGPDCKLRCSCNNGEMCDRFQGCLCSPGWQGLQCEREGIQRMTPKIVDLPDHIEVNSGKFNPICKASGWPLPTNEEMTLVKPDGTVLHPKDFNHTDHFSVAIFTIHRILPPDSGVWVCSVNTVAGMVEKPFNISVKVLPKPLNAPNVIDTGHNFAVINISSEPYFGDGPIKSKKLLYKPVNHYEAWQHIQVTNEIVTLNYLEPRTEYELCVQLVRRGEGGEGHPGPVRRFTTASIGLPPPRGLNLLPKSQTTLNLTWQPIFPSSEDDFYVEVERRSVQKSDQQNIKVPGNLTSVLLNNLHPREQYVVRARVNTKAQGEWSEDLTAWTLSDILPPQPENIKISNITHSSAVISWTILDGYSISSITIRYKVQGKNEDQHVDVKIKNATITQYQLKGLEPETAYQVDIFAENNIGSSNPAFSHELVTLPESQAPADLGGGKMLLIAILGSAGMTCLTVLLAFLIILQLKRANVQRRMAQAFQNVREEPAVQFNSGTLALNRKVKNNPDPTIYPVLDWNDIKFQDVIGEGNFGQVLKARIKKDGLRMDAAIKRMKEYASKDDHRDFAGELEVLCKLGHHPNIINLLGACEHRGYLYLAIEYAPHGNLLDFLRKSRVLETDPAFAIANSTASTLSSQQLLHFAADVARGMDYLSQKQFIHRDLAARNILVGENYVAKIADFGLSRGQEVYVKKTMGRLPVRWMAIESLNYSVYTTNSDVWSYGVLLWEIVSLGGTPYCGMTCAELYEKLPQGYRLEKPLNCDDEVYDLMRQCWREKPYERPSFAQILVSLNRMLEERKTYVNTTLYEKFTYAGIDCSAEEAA
Chain of IRAK4 (Q9NWZ3 whole entry): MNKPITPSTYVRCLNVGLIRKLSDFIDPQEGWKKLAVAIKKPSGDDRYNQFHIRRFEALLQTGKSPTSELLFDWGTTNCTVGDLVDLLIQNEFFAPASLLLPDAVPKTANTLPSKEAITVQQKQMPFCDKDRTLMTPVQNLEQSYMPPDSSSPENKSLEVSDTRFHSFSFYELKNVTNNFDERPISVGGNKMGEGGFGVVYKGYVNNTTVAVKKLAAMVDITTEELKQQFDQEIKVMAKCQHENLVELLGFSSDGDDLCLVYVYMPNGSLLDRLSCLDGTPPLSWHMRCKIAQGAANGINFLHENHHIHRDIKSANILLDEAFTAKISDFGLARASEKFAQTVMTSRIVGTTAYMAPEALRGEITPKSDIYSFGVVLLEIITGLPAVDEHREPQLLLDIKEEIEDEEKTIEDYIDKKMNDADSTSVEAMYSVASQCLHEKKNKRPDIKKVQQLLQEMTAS
Chain of NTRK1 (TRKA) (P04629 33-796): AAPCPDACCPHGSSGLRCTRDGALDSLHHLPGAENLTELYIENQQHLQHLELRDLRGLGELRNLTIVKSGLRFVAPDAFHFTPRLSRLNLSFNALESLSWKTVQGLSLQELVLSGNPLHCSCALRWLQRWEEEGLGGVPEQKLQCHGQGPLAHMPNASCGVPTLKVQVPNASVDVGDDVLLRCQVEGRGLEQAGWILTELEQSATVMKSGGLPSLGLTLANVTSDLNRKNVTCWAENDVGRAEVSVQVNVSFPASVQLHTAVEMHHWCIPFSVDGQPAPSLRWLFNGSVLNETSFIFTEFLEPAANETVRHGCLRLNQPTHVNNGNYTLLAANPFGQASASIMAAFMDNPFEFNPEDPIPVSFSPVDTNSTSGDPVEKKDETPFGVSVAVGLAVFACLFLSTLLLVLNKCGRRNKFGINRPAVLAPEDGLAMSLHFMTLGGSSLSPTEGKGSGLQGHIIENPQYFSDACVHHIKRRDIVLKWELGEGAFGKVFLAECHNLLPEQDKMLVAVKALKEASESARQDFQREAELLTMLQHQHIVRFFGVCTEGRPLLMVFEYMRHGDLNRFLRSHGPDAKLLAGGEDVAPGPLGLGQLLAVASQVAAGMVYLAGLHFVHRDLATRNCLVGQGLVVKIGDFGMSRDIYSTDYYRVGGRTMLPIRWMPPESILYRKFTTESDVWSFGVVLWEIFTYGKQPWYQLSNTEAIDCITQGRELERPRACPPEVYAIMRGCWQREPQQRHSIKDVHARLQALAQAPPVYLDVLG
Chain of AKT1 (PKB alpha) (P31749 whole entry): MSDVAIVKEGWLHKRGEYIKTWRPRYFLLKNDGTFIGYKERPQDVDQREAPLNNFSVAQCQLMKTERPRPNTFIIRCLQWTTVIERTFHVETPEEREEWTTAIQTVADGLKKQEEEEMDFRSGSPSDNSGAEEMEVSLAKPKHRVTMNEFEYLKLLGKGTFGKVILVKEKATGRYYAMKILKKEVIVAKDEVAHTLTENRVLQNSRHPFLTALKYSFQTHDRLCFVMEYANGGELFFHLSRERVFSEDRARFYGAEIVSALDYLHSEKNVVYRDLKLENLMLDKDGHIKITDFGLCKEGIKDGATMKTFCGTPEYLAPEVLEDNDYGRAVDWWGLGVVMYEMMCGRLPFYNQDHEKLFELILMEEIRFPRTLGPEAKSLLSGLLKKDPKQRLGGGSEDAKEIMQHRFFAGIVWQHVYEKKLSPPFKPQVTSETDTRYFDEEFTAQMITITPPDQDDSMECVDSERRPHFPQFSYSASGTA

CCN(CC)CCOc1ccc(Nc2ncc3cc(-c4c(Cl)cccc4Cl)c(=O)n(C)c3n2)cc1 [Compound 1 BMCL, 2005, p1931, reference compound]
Inhibition IKBKB (IKK beta) (IKBKB (IKK beta)): − (Inhibition <75% @ 300-350 nM)
Inhibition MAPK8 (JNK1) (MAPK8 (JNK1)): − (Inhibition <75% @ 300-350 nM)
Inhibition PRKCB1 (PKC beta I) (PRKCB1 (PKC beta I)): − (Inhibition <75% @ 300-350 nM)
Inhibition KIT (KIT): + (Inhibition >75% at 300-350 nM)
Inhibition MET (cMet) (MET (cMet)): − (Inhibition <75% @ 300-350 nM)
Inhibition AURKA (Aurora A) (AURKA (Aurora A)): − (Inhibition <75% @ 300-350 nM)
Inhibition MAPK14 (p38 alpha) (MAPK14 (p38 alpha)): + (Inhibition >75% at 300-350 nM)
Inhibition IGF1R (IGF1R): − (Inhibition <75% @ 300-350 nM)
IC50 (Src [1]): 6 nM
Inhibition PHKG2 (PHKG2): − (Inhibition <75% @ 300-350 nM)
Inhibition MAPKAPK2 (MAPKAPK2): − (Inhibition <75% @ 300-350 nM)
Inhibition SYK (SYK): − (Inhibition <75% @ 300-350 nM)
Inhibition CHEK1 (CHK1) (CHEK1 (CHK1)): − (Inhibition <75% @ 300-350 nM)
Inhibition LCK (LCK): + (Inhibition >75% at 300-350 nM)
Inhibition AKT1 (PKB alpha) (AKT1 (PKB alpha)): − (Inhibition <75% @ 300-350 nM)
Inhibition FRAP1 (mTOR) (FRAP1 (mTOR)): − (Inhibition <75% @ 300-350 nM)
Inhibition SRC (Src [2]): + (Inhibition >75% at 300-350 nM)
Inhibition RET (RET): + (Inhibition >75% at 300-350 nM)
Inhibition MAP4K4 (HGK) (MAP4K4 (HGK)): + (Inhibition >75% at 300-350 nM)
Inhibition NTRK1 (TRKA) (NTRK1 (TRKA)): − (Inhibition <75% @ 300-350 nM)
Inhibition IRAK4 (IRAK4): − (Inhibition <75% @ 300-350 nM)
Inhibition FLT3 (FLT3): + (Inhibition >75% at 300-350 nM)
Inhibition TEK (Tie2) (TEK (Tie2)): − (Inhibition <75% @ 300-350 nM)
